Reference: US20190369111A1, “MOLECULAR KINETICS EVALUATION METHOD AND SCREENING METHOD” (Tokyo University of Science Foundation, priority 2016, published 2019)

Target: endogenous wild-type p53 protein (Homo sapiens, UniProt P04637)
Assay: Degradation of endogenous wild-type p53 protein in HeLa cells, Western blot analysis
Assay type: cell-based
Design: endogenous in cells
Experimental: HeLa cells were seeded in a 24-well plate at a cell density of 4×10^4 cells/well, and then cultured under conditions of 37° C. and 5 vol % CO2 for 16 hours.
After 16 hours from cell seeding, TIBC-CANDDY_MLN was added to HeLa cells as follows. […]
After electrophoresis, proteins were transferred to a PVDF membrane (Immobion™-P, Millipore) under conditions of 100 V and 2 hours using a tank-type blotting device and a transfer buffer (25 mM Tris-HCl, 195 mM glycine, 0.01% SDS, 15% methanol). […] Subsequently, the membrane was treated with a chemiluminescence reagent Immobilon™ Western (Millipore), and then chemiluminescence was detected using a lumino image analyzer LAS-3000 (FUJIFILM Corporation).

Chain of endogenous wild-type p53 protein (P04637 whole entry): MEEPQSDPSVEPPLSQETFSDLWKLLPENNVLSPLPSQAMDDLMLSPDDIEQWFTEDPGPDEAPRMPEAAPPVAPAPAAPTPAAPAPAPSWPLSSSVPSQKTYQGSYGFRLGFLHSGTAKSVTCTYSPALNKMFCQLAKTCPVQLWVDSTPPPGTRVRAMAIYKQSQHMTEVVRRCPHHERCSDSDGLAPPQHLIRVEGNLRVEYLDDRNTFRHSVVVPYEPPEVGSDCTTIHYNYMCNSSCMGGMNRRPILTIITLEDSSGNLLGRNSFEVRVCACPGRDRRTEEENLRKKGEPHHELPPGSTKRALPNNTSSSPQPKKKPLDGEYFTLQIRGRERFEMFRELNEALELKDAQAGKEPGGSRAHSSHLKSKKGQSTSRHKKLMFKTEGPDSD

In the case of CC(C)C[C@H](NC(=O)CNC(=O)c1cc(Cl)ccc1Cl)C(=O)NCCCCCCC(=O)Nc1ccc(C(=O)/C=C/c2ccc(I)cc2)cc1 [TIBC-CANDDY_MLN], the “amount of endogenous wild-type p53 protein” value (24 hours after addition) is reported as “the amount of the endogenous wild-type p53 protein was reduced” and the “amount of wild-type p53 protein when MLN2238 is added together” value (both TIBC-CANDDY_MLN and MLN2238 added) is reported as “the amount of the wild-type p53 protein was increased as compared with the control (DMSO)”.
